{
  "source": "paper PMC6704344",
  "about": "“The Preclinical Pharmacological Study of a Novel Long-Acting Local Anesthetic, a Fixed-Dose Combination of QX-OH/Levobupivacaine, in Rats” (Frontiers in Pharmacology, 2019)",
  "key": {"[1]": {"assay": "Plasma pharmacokinetics after sciatic nerve block in rats", "type": "in vivo, rat", "conditions": "for Tmax / AUC(0-inf) / AUC(0-t) / Cmax / Vd/F / half-life / CL/F: plasma", "from_the_text": "(§1) In brief, rats were anesthetized by inhaling 1%–2% isoflurane mixed with oxygen through an inhouse-made mask. Then, the rats were placed at right lateral position and inserted vertically using a 23-gauge injector at the middle of the line from the greater trochanter to ischial tuberosity ([Binshtok et al., 2007]; [Zhang et al., 2017b]).\nAccording to the China Food and Drug Administration guidance for preclinical pharmacokinetic study, there should be more than three sampling points adjacent to the time to reach the maximum concentration. […] Thus, to obtain an accurate value of the maximum concentration of Levo-Bupi, we added another time point at 0.33 h. […] Blood samples were maintained in heparinized polypropylene tube separately and then centrifuged at 877 × g for 10 min to gain plasma within 1 h. All the samples were kept at -80°C.\n(§2) According to previous study ([Zhang et al., 2017a]), plasma samples were deproteinized by acetonitrile solution with ropivacaine hydrochloride (internal standard, IS). The mixture was centrifuged for 10 min at 28,621 × g in 4°C after fully vortexed. The supernatant was diluted with ultrapure water (50:50, v/v). Muscle and sciatic nerve samples were homogenized by gentleMACS™ Dissociator (Miltenyi Biotec, Germany) and tissue grinder (model SCIENTZ-48, Ningbo, China), respectively. Tissue homogenate was mixed with IS solution by vortex and then centrifuged for 10 min at 28,621 × g. Then, the supernatant was diluted with ultrapure water at equal volume ratio. LC-MS/MS analysis system consist of Agilent 6460 triple quadrupole mass spectrometer and electrospray ionization source (Agilent Technologies, CA, USA). Chromatographic separation was adopted by Agilent Extend C18 column (100 mm × 3 mm, 3.5 μm) at 35°C with isocratic elution containing 0.05% formic acid and acetonitrile at the volume ratio of 78:22 at a flow rate of 0.3 ml/min. Mass spectrometry conditions were in a positive ionization mode: the sheath gas flow rate, 11.0 L/min; sheath gas heater temperature, 300°C; nebulizer pressure, 45 psi; capillary voltage, 3,500 V. MassHunter software was used to analyze data (B.04.00 Build 4.0.479.0, Agilent Technologies, USA).\n(§3) The parameters of pharmacokinetics were analyzed by DAS® (Drug and Statistics, version 3.2.1, China) using noncompartmental model. In this study, the following pharmacokinetic parameters were calculated: the value of maximum concentration (Cmax) and the time to acquire (Tmax); the elimination half-life (t1/2); area under curve (AUC) from zero to the last time point (AUC0–last) and from zero to infinity (AUC0–∞); clearance (CL/F), and volume of distribution (Vd/F)."}, "[2]": {"assay": "Drug concentration and pharmacokinetics in muscle near the injection site after sciatic nerve block in rats", "type": "in vivo, rat", "experimental": "as §1, with “2017b]). Once the bone has been contacted, 200 μl drug was injected.” for “2017b]).”\n(§4) On the basis of previous pharmacodynamic studies, nine sampling points were used for determining drug concentration in muscle and sciatic nerve for QX-OH and LL-1: 0.5, 1, 2, 3, 4, 5, 6, 7, and 8 h; four sampling points for Levo-Bupi: 0.5, 1, 2, and 3 h. Due to the destructive sampling, five male rats were sacrificed at each time point for collecting muscle and sciatic nerve nearby the injection site. Then all samples were weighed and frozen at -80°C.\nas §2, §3"}, "[3]": {"assay": "Drug concentration and pharmacokinetics in sciatic nerve after sciatic nerve block in rats", "type": "in vivo, rat", "experimental": "as §1, with “2017b]). Once the bone has been contacted, 200 μl drug was injected.” for “2017b]).”\nas §4, §2, §3"}, "[4]": {"tested_on": "frog sciatic nerve fibers", "assay": "Compound action potentials (CAPs) from frog sciatic nerve fibers", "conditions": "LL-1, 35 mM QX-OH, 10 mM Levo-Bupi", "from_the_text": "According to previous published researches ([Matsushita et al., 2013]; [Ohtsubo et al., 2015]). Nine of frogs were decapitated and then pithed. Then, the sciatic nerve was dissected from the lumbar plexus to the knee. The two ends of isolated sciatic nerves were carefully tied to the wires by threads and placed in Ringer solution (NaCl, 115.5 mmol/L; KCl, 2.0 mmol/L; CaCl2, 1.8 mmol/L; Na2HPO4, 1.3 mmol/L and NaH2PO4, 0.7 mmol/L; pH = 7.4).\nThe compound action potentials (CAPs) from frog sciatic nerve fibers was recorded by the biological function experiment system (BL-420F, Chengdu Techman Software, China). All practices were carried out at room temperature. The sciatic nerve was loosely placed in three platinum wires and then CAPs were recorded in air using a preamplifier. In this system, two of the platinum wires were used to record CAPs, and the other one was for stimulation. The parameters of stimulation were set as follows: intensity, 3 V; frequency, 1 Hz; rectangular pulses, 0.1 ms. The procedure should be performed quickly in order to avoid the nerve dry. The time of measurement should be less than 2 min. […] In this study, we compared the amplitude of CAPs after using drugs with baseline to present the degree of inhibition from frog sciatic nerve, and which was analyzed using the following equation: CAPs amplitude (%) = CAPs measurement/CAPs baseline × 100%."}, "[5]": {"tested_on": "HT22 cells", "assay": "Cellular drug uptake assay", "type": "cell-based, mouse", "conditions": "LL-1 vs 10 mM Levo-Bupi alone, 10 min incubation, n = 10, p = 0.067", "experimental": "HT22 cell line, a sub-line derived from HT4 cells that were originally immortalized from primary mouse hippocampal neuron, were a generous gift from Dr. Huang (West China Second University Hospital, Sichuan University, China). HT22 cells were cultured in DMEM with high glucose (HyClone, Utah, USA) supplemented with 10% fetal bovine serum (Gibco, New York, USA) and 1% penicillin and streptomycin (HyClone, Utah, USA) in a humidified incubator with 5% CO2 and 95% air at 37°C.\nAccording to previous study ([Brenneis et al., 2014]), cells were plated on 35 mm 6-well dishes (2.5 × 10^5 per well). When cells reached confluence at 70%–80%, the medium was removed, and plates washed with PBS (NaCl, 137.0 mmol/L; KCl, 2.7 mmol/L; KH2PO4, 1.5 mmol/L and Na2HPO4·12H2O, 8.0 mmol/L; pH = 7.4). Thirty wells were divided to incubate with LL-1, 35 mM QX-OH and 10 mM Levo-Bupi for 10 min, and then washed four times with PBS. Cells were translated to polypropylene tube. The cell suspensions were centrifuged at 72 × g and the supernatants were removed by pipette. All samples were frozen at -80°C before testing. Samples were homogenized with 100 µL of saline using a tissue grinder. After mixing 50 μl homogenate, 50 μl acetonitrile, and 10 μl IS, then the mixture was centrifuged for 10 min at 28,621 × g, and the supernatant was injected for analysis."}, "[6]": {"design": "method as in Corvetto et al., 2012", "conditions": "transversus abdominis plane block; ref Corvetto et al., 2012; cited from earlier work"}, "[7]": {"tested_on": "RAW, N1E and CHO cells", "conditions": "cited from earlier work"}, "[8]": {"design": "method as in Yu et al., 2002", "conditions": "subcutaneous administration; ref Yu et al., 2002; cited from earlier work"}, "[9]": {"conditions": "both sexes, rat, 200 μl, Levobupivacaine alone (single drug), sciatic nerve block, mean ± SEM"}, "[10]": {"conditions": "both sexes, rat, given as LL-1, sciatic nerve block, n = 10, mean ± SEM"}, "[11]": {"conditions": "male, rat, muscle near the injection site, muscle, given as LL-1, sciatic nerve block, n = 5 per time point, mean ± SEM"}, "[12]": {"conditions": "muscle, given as LL-1, sciatic nerve block, n = 5 per time point, mean ± SEM"}, "[13]": {"conditions": "male, rat, sciatic nerve, given as LL-1, sciatic nerve block, n = 5 per time point, mean ± SEM"}, "[14]": {"conditions": "sciatic nerve, given as LL-1, sciatic nerve block, n = 5 per time point, mean ± SEM"}},
  "data": [
    {"smiles": "CCCCN1CCCC[C@H]1C(=O)Nc1c(C)cccc1C", "note": "[Levobupivacaine, levobupivacaine]", "values": [
      {"measurement": "change of Tmax in plasma in combination with QX-OH vs alone", "setting": "[1]; LL-1 vs Levo-Bupi alone, sciatic nerve block", "value": "increased by four times"},
      {"measurement": "Tmax", "setting": "[1]; Sprague-Dawley, 200 μl, Levo-Bupi as a single drug, rat sciatic nerve block, preliminary experiment, read-out: time to maximum concentration", "value": 0.5, "unit": "h"},
      {"measurement": "AUC(0-inf)", "setting": "[1]; [9]", "value": "509 ± 31.5", "unit": "ng·h/mL"},
      {"measurement": "AUC(0-t)", "setting": "[1]; [9]", "value": "471 ± 23.3", "unit": "ng·h/mL"},
      {"measurement": "Cmax", "setting": "[1]; [9]", "value": "142 ± 13", "unit": "ng/mL"},
      {"measurement": "Vd/F", "setting": "[1]; [9]", "value": "4.81 ± 0.5", "unit": "L"},
      {"measurement": "half-life", "setting": "[1]; [9]", "value": "2.61 ± 0.31", "unit": "h"},
      {"measurement": "Tmax", "setting": "[1]; both sexes, rat, 200 μl, Levobupivacaine alone (single drug), sciatic nerve block, mean ± SEM, read-out: Tmax", "value": "1.07 ± 0.16", "unit": "h"},
      {"measurement": "Cmax", "setting": "[1]; both sexes, rat, given as LL-1 (35 mM QX-OH/10 mM Levo-Bupi), 200 μl, sciatic nerve block, n = 10, mean ± SEM", "value": "114 ± 10.2", "unit": "ng/mL"},
      {"measurement": "AUC(0-inf)", "setting": "[1]; [10]", "value": "819 ± 78.8", "unit": "ng·h/mL"},
      {"measurement": "AUC(0-t)", "setting": "[1]; [10]", "value": "651 ± 47.4", "unit": "ng·h/mL"},
      {"measurement": "Vd/F", "setting": "[1]; [10]", "value": "3.81 ± 0.7", "unit": "L"},
      {"measurement": "half-life", "setting": "[1]; [10]", "value": "4.89 ± 1.77", "unit": "h"},
      {"measurement": "Tmax", "setting": "[1]; both sexes, rat, given as LL-1, sciatic nerve block, n = 10, mean ± SEM, read-out: Tmax", "value": "4.11 ± 0.39", "unit": "h"},
      {"measurement": "CL/F", "setting": "[1]; Levobupivacaine alone (single drug), sciatic nerve block, mean ± SEM", "value": "1.32 ± 0.08", "unit": "L/h"},
      {"measurement": "CL/F", "setting": "[1]; given as LL-1, sciatic nerve block, n = 10, mean ± SEM", "value": "0.78 ± 0.10", "unit": "L/h"},
      {"measurement": "Tmax", "setting": "[1]; rat, Levo-Bupi in combination with QX-314 (35 mM/10 mM), sciatic nerve block, n = 10, read-out: Tmax", "value": 4, "unit": "h"},
      {"measurement": "increase of concentration in muscle, LL-1 vs single drug", "setting": "[2]; at the same time points", "value": "2 to 15", "unit": "times"},
      {"measurement": "Tmax", "setting": "[2]; male, rat, muscle near the injection site, muscle, given as LL-1, sciatic nerve block, n = 5 per time point", "value": 0.5, "unit": "h"},
      {"measurement": "Cmax", "setting": "[2]; [11]", "value": "256000 ± 28500", "unit": "ng/g"},
      {"measurement": "Vd/F", "setting": "[2]; [11]", "value": "3.01 ± 1.21", "unit": "L"},
      {"measurement": "half-life", "setting": "[2]; [11]", "value": "1.38 ± 0.6", "unit": "h"},
      {"measurement": "AUC0–t", "setting": "[2]; [12]", "value": "417.58 ± 43.46", "unit": "µg·h/g"},
      {"measurement": "AUC0–∞", "setting": "[2]; [12]", "value": "417.86 ± 43.49", "unit": "µg·h/g"},
      {"measurement": "CL/F", "setting": "[2]; [12]", "value": "1.59 ± 0.17", "unit": "L/h"},
      {"measurement": "increase of concentration in sciatic nerve, LL-1 vs single drug", "setting": "[3]; at the same time points", "value": "1.5 to 24", "unit": "times"},
      {"measurement": "Tmax", "setting": "[3]; male, rat, sciatic nerve, given as LL-1, sciatic nerve block, n = 5 per time point", "value": 0.5, "unit": "h"},
      {"measurement": "Cmax", "setting": "[3]; [13]", "value": "430000 ± 48600", "unit": "ng/g"},
      {"measurement": "Vd/F", "setting": "[3]; [13]", "value": "1.23 ± 0.8", "unit": "L"},
      {"measurement": "half-life", "setting": "[3]; [13]", "value": "1.28 ± 0.74", "unit": "h"},
      {"measurement": "AUC0–t", "setting": "[3]; [14]", "value": "935.82 ± 74.35", "unit": "µg·h/g"},
      {"measurement": "AUC0–∞", "setting": "[3]; [14]", "value": "935.88 ± 74.39", "unit": "µg·h/g"},
      {"measurement": "CL/F", "setting": "[3]; [14]", "value": "0.70 ± 0.05", "unit": "L/h"},
      {"measurement": "soak time required to block CAPs", "setting": "[4]; n = 6, mean ± SEM", "value": "14.17 ± 2.01", "unit": "min"},
      {"measurement": "CAPs amplitude (% of baseline)", "setting": "[4]; within the first 5 min of soaking", "value": 34, "unit": "%"},
      {"measurement": "cellular uptake of Levo-Bupi", "setting": "[5]", "value": "had no difference"},
      {"measurement": "change of Tmax on combining with epinephrine", "setting": "[6]", "value": "doubled"}
    ]},
    {"smiles": "CC[N+](CC)(CC)CC(=O)Nc1c(C)cccc1C.[Br-]", "note": "[QX-314]", "values": [
      {"measurement": "cellular uptake of QX-314 in presence of bupivacaine", "setting": "[7]", "value": "enhanced the cellular uptake"}
    ]},
    {"smiles": "CCCCN1CCCCC1C(=O)Nc1c(C)cccc1C", "note": "(stereo not drawn) [bupivacaine]", "values": [
      {"measurement": "time at which Cmax was reached", "setting": "[8]", "value": 0.5, "unit": "h"}
    ]}
  ]
}
